Laboratory results as given in ChEMBL document CHEMBL3045983, “Ajugatakasins A and B, New Diterpenoids fromAjuga decumbens, and Feeding Stimulative Activity of Related Neoclerodane Analogs toward the Turnip Sawfly” (1997).

Columns and labels:
Assay type in all cases: functional
[1] = test system: Athalia rosae ruficornis; test: Induction of feeding in larvae of Athalia rosae ruficornis on leaves of Ajuga decumbens assessed as feeding response measured for 10 seconds relative to control; set-up: concentration or dose not given beside the values
[2] = test system: Athalia rosae ruficornis; test: Induction of feeding in larvae of Athalia rosae ruficornis on leaves of Ajuga decumbens assessed as feeding response at 10 ug/64 mm'2 of filter paper measured for 10 seconds
[3] = test system: Athalia rosae ruficornis; test: Induction of feeding in larvae of Athalia rosae ruficornis on leaves of Ajuga decumbens assessed as feeding response at 0.1 ug/64 mm'2 of filter paper measured for 10 seconds

SMILES	Activity [1]	Activity [2]	Activity [3]
C/C=C(\C)C(=O)O[C@@H]1CC[C@]2(CO2)[C@]2(COC(C)=O)[C@@H](OC(C)=O)C[C@@H](C)[C@](C)(C[C@H](O)C3=CC(=O)OC3)[C@@H]12 [AJUGAMARIN A1]	46.3%	0%	0%
C/C=C(\C)C(=O)O[C@@H]1CC[C@]2(CO2)[C@]2(COC(C)=O)[C@@H](OC(C)=O)C[C@@H](C)[C@](C)(C[C@H](OC(=O)[C@@H](C)CC)C3=CC(=O)OC3)[C@@H]12 [AJUGAMARIN G1]	9.3%	0%	0%
C/C=C(\C)C(=O)O[C@@H](C[C@@]1(C)[C@H](C)C[C@H](OC(C)=O)[C@]2(COC(C)=O)[C@@H]1[C@H](OC(=O)[C@@H](C)CC)CC[C@]21CO1)C1=CC(=O)OC1 [AJUGAMARIN H1]	7%	0%	0%
C/C=C(\C)C(=O)O[C@@H](C[C@@]1(C)[C@H](C)C[C@H](OC(C)=O)[C@]2(COC(C)=O)[C@@H]1[C@H](OC(=O)/C(C)=C/C)CC[C@]21CO1)C1=CC(=O)OC1 [AJUGATAKASIN A]	28.4%	0%	0%
CC[C@H](C)C(=O)O[C@@H](C[C@@]1(C)[C@H](C)C[C@H](OC(C)=O)[C@]2(COC(C)=O)[C@@H]1[C@H](OC(=O)[C@@H](C)CC)CC[C@]21CO1)C1=CC(=O)OC1 [AJUGATAKASIN B]	0.4%	0%	0%
CC[C@H](C)C(=O)O[C@H]1[C@H](O)C[C@@H]2[C@@](C)([C@@H]3C[C@H]4C=CO[C@H]4O3)[C@H](C)C[C@H](OC(C)=O)[C@@]2(COC(C)=O)[C@@]12CO2 [CLERODENDRIN D]	0.08%	100%	88%
CCC(C)C(=O)O[C@@H]1CC[C@]2(CO2)[C@]2(COC(C)=O)[C@@H](OC(C)=O)C[C@@H](C)[C@](C)(C[C@H](O)C3=CC(=O)OC3)[C@@H]12 (stereo partly specified) [DIHYDROAJUGAMARIN]	8.6%	0%	0%
